Here are results for ten compounds from patent US9475802B2, “Inhibitors of viral replication, their process of preparation and their therapeutical uses” (LABORATOIRE BIODIM, priority 2012, dated 2016).

The structures appear in SMILES notation.

The test system of this assay is NL4-3 strain of HIV-1. In words: Inhibition of HIV replication: cyto-protection in Cell-Titer-Glo viability assay, MT4 cells infected with NL4-3 virus. It is filed as cell-based. The note with it: Human immunodeficiency virus 1, NL43, 120 h, concentration leading to 50% of cyto-protection, 5 days incubation, CellTiter-Glo luminescence. The method, then:
The antiviral activity, particularly against HIV, of compounds according to the invention is evaluated by the protocol described below.
Preparation of Virus Stock of the NL4-3 Strain of HIV-1 (Adachi et al, J Virol, 1986, 59(2):284-91).
The virus was prepared as described in Lopez et al (Lopez et al, Proc Natl Acad Sci USA., 2006, 103(40):14947-52, by transfecting 2×10^6 293 T cells (CRL-1573, ATCC) with following modifications: 6 μg of NL4-3 proviral DNA molecular clone were mixed with Fugene 6 transfection reagent from Roche, and used according to manufacturer's instructions. Forty eight hours later, transfected cell supernatants were harvested, filtered through 0.45-μm-pore-size filters, quantified for HIV-1 p24 antigen by using a Innotest HIV antigen mAb assay (Ingen) according to manufacturer's instructions, and used in infection experiments.
Serial dilutions of compounds to be tested were prepared in complete RPMI medium from 10 mM DMSO stock solutions, and distributed in a volume of 20 μL in 96 well Falcon 353072 Microtest™ tissue culture plate, in order to get 0.5% DMSO final concentration in each well, after the addition of infected cells. Control wells contained also 0.5% DMSO final concentration but no compound.
MT^4 cells (from the NIH AIDS Research and Reference Reagent Program) in RPMI complete medium were counted (10×10^6 cells per well in Falcon 353047 Multiwell™ 24 well) and infected for 2 hours at 37°, at a multiplicity of infection (moi) of 0.0001-0.00001. Cells were then centrifuged 3 min at 3000 rpm, and washed two times in 1 ml PBS to remove viruses that have not entered in cells. Infected cells were resuspended in complete RPMI at 1.25×10^6 cells/ml, and 80 μl of infected cells were distributed in each well containing compounds to be tested or control wells. The plates were then incubated at 37° for 5 days.
Assay Used to Measure the Inhibition of HIV Replication by the Compounds (According to (According to Gregg S. Jones et al., Antimicrobial Agents and Chemotherapy, 2009, 53 (3): 1194-1203).
After 5 days of incubation, 50 μl of CellTiter-Glo reagent (Promega Biosciences, Inc., Madison Wis., USA) were added to each well. Cell lysis was carried out at room temperature during 10 min, 150 μl of lysates were transferred in Packard Optiplate 96 well, and luminescence was read on a Fluoroskan (Thermo Scientific).
The EC50, or effective concentration 50, is the concentration of compound leading to 50% of cyto-protection in a Cell-Titer-Glo® viability assay based on MT^4 cells infected with NL4-3 virus (table 1).
As usually defined, the EC50 is the concentration at which the effect is half-maximal. Compound `CC(C)(C)OC(C(=O)O)c1c(C(F)(F)F)ccc(-c2ccc(=O)n(Cc3ccccc3)c2)c1-c1ccc2c(c1)CCCO2` (stereo not shown) [Example 26, 2-[3-(1-benzyl-6-oxo-1,6-dihydropyridin-3-yl)-2-(3,4-dihydro-2H-1-benzopyran-6-yl)-6-(trifluoromethyl)phenyl]-2-(tert-butoxy)acetic acid] returned a concentration giving a half-maximal response (EC50) of 440 nM.
The value for `CC(C)(C)OC(C(=O)O)c1c(C(F)(F)F)ccc(-c2ccc(=O)n(CC3CC3)c2)c1-c1ccc2c(c1)CCCO2` (stereo not shown) [Example 27, 2-(tert-butoxy)-2-{3-[1-(cyclopropylmethyl)-6-oxo-1,6-dihydropyridin-3-yl]-2-(3,4-dihydro-2H-1-benzopyran-6-yl)-6-(trifluoromethyl)phenyl}acetic acid] was 79 nM; that for `CCCc1cc(-c2ccc(C(F)(F)F)c(C(OC(C)(C)C)C(=O)O)c2-c2ccc3c(c2)CCCO3)ccn1` (stereo not shown) [Example 28, 2-(tert-butoxy)-2-[2-(3,4-dihydro-2H-1-benzopyran-6-yl)-3-(2-propylpyridin-4-yl)-6-(trifluoromethyl)phenyl]acetic acid] was 78 nM; that for `CCCc1cccc(-c2ccc(C(F)(F)F)c(C(OC(C)(C)C)C(=O)O)c2-c2ccc3c(c2)CCCO3)c1` (stereo not shown) [Example 29, 2-(tert-butoxy)-2-[2-(3,4-dihydro-2H-1-benzopyran-6-yl)-3-(3-propylphenyl)-6-(trifluoromethyl)phenyl]acetic acid] was 430 nM.
Under `CC(C)(C)OC(C(=O)O)c1c(C(F)(F)F)ccc(-c2ccc(=O)n(CC3CCC3)c2)c1-c1ccc2c(c1)CCCO2` (stereo not shown) [Example 30, 2-(tert-butoxy)-2-{3-[1-(cyclobutylmethyl)-6-oxo-1,6-dihydropyridin-3-yl]-2-(3,4-dihydro-2H-1-benzopyran-6-yl)-6-(trifluoromethyl)phenyl}acetic acid] stands 67 nM.
Under `CC(C)(C)OC(C(=O)O)c1c(C(F)(F)F)ccc(-c2ccc(=O)n(CCC3CC3)c2)c1-c1ccc2c(c1)CCCO2` (stereo not shown) [Example 31, 2-(tert-butoxy)-2-{3-[1-(2-cyclopropylethyl)-6-oxo-1,6-dihydropyridin-3-yl]-2-(3,4-dihydro-2H-1-benzopyran-6-yl)-6-(trifluoromethyl)phenyl}acetic acid] stands 260 nM; under `CC(C)Cn1cc(-c2ccc(C(F)(F)F)c(C(OC(C)(C)C)C(=O)O)c2-c2ccc3c(c2)CCCO3)ccc1=O` (stereo not shown) [Example 32, 2-(tert-butoxy)-2-[2-(3,4-dihydro-2H-1-benzopyran-6-yl)-3-[1-(2-methylpropyl)-6-oxo-1,6-dihydropyridin-3-yl]-6-(trifluoromethyl)phenyl]acetic acid], 85 nM; under `Cc1ccc(-c2ccc(=O)n(CC3CCC3)c2)c(-c2ccc3c(c2C)CCCO3)c1C(OC(C)(C)C)C(=O)O` (stereo not shown) [Example 37, 2-(tert-butoxy)-2-[3-(1-cyclobutylmethyl-6-oxo-1,6-dihydro-pyridin-3-yl)-6-methyl-2-[5-methyl-(3,4-dihydro-2H-1-benzopyran-6-yl)]phenyl]acetic acid], 310 nM.
As to `CC(C)(C)OC(C(=O)O)c1c(C(F)(F)F)ccc(-c2cccn(CC3CCC3)c2=O)c1-c1ccc2c(c1)CCCO2` (stereo not shown) [Example 38, 2-(tert-butoxy)-2-{3-[1-(cyclobutylmethyl)-2-oxo-1,2-dihydropyridin-3-yl]-2-(3,4-dihydro-2H-1-benzopyran-6-yl)-6-(trifluoromethyl)phenyl}acetic acid], the EC50 came to 130 nM.
`CC(C)(C)OC(C(=O)O)c1c(C(F)(F)F)ccc(-c2ccc(=O)n(C3CC3)c2)c1-c1ccc2c(c1)CCCO2` (stereo not shown) [Example 39, 2-(tert-butoxy)-2-[3-(1-cyclopropyl-6-oxo-1,6-dihydropyridin-3-yl)-2-(3,4-dihydro-2H-1-benzopyran-6-yl)-6-(trifluoromethyl)phenyl]acetic acid] had an EC50 of 330 nM. This EC50 is about 2.5-fold higher than that of the compound before.
